Assay results taken from US11925612B2, “Bactericidal and virucidal pharmaceutical composition” (Quimica Luar SRL, priority 2015, dated 2024).
Like-named read-outs stand apart in the source and are kept apart here.

Columns and labels:
P. aeruginosa = experiment: Bactericidal test: CFU count after incubation in PBS buffer; type: cell-based, Pseudomonas aeruginosa; details: for Colony count (UFC/mL ± 10) P. aeruginosa: 4-hour at 37° C., control 3,000,000, Example 15; for P. aeruginosa count (UFC/mL ± 10) As a function of treatment time: 37° C., Example 6; for P. aeruginosa count (UFC/mL ± 10) As a function of treatment time / Colony count (UFC/mL ± 10): control 2,000,000; for Colony count (UFC/mL ± 10) Pseudomonas: Example 9; for Colony count (UFC/mL ± 10): 4-hour contact at 37° C., Example 8; for concentration at which the number of CFU/mL decreases to 1000: FIG. 11, Example 12
Klebsiella pneumoniae = experiment: as above; type: cell-based; details: 4-hour contact at 37° C., control 1,000,000, Example 8
Burkhordelia cepacia = type: cell-based; details: control 1,300,000; for Colony count (UFC/mL ± 10) Burkhordelia: 4 hours at 37° C., Example 9; for Colony count (UFC/mL ± 10): 4-hour contact at 37° C., Example 8
Description: In this case, tests were run on a non-nutritive liquid carrier (buffer solution) wherein the antimicrobial agent is mixed with quantified inocula of pure bacterial cultures. After different incubation times, the material is seeded on agar plates to perform quantification assays on the number of bacterias surviving the treatment.
When the time for each assay finished, aliquots of 100 uL and decimal dilutions of each tube which were seeded on petri dishes for the direct count of colony forming units (CFU) in Mueller Hinton agar (MHA), using pour-plating or spread-plating standard methods.
During testing, the medium was stored in thermostatic bath between 45-50° C. because the seeding technique requires imbibing and integrating bacteria in the medium.

Enterobacter aerogenes = experiment: Bactericidal test: CFU count after incubation in PBS buffer; type: cell-based; details: 4-hour contact at 37° C., control 1,000,000, Example 8
[1] = system: artificial biofilm of P. aeruginosa; experiment: Antimicrobial effect on artificial biofilm (2% alginate solution); type: cell-based, Pseudomonas aeruginosa; details: Biofilm (2% alginate) + ionic strength (1 M NaCl), 4 hours at 37° C., control 2,000,000, Example 21
Description: Work consisted of incubating bacterial populations of a known load in terms of CFU/mL with the compounds mentioned in different molar concentrations. In vitro test batteries were organized at different doses or concentrations and in 1.5 mL Eppendorf tubes without the addition of culture medium. To this purpose, a PBS 100 mM phosphate buffer was used to maintain physiological conditions throughout the period of each test at 37° C. […] Each plate was added with 5 uL of a solution of 2,3,5-metabolic dye triphenyltetrazolium of chloride (TTC) 1% to enhance the contrast of colonies. Plates were incubated in inverted position, in a culture stove for 24-48 hours at 37° C. and subsequently the direct count was done, adjusted by dilution factors and seeding to report results in terms of CFU/mL. […] Treatments lasted 4 hours at 37° C.

Pseudomonas fluorescens = experiment: Bactericidal test: CFU count after incubation in PBS buffer; type: cell-based; details: 4-hour contact at 37° C., control 100,000, Example 8

Structure (SMILES): CC(C)Cc1ccc(C(C)C(=O)O)cc1.[Na] (stereo not shown) [IBU-Na, SODIUM IBUPROFEN]
- P. aeruginosa (UFC/mL ± 10) (P. aeruginosa; IBU-Na 10 mM, Population C (control 2,000), 4 h at 37° C., Example 5): 800 UFC/mL
- P. aeruginosa (UFC/mL ± 10) (P. aeruginosa; IBU-Na 10 mM, Without ionic strength, 4 hours at 37° C., control 1,700,000, Example 12): 760,000 UFC/mL
- Colony count (UFC/mL ± 10) P. aeruginosa (P. aeruginosa; IBU-Na 12.5 mM + ClNa (1M)): 250 UFC/mL
- P. aeruginosa (UFC/mL ± 10) (P. aeruginosa; IBU-Na 20 mM, Population A (control 200,000), 4 h at 37° C., Example 5): 20,000 UFC/mL
- P. aeruginosa (UFC/mL ± 10) (P. aeruginosa; IBU-Na 20 mM, Population B (control 20,000), 4 h at 37° C., Example 5): 400 UFC/mL
- P. aeruginosa (UFC/mL ± 10) (P. aeruginosa; IBU-Na 20 mM, Population C (control 2,000), 4 h at 37° C., Example 5): 50 UFC/mL
- Colony count (UFC/mL ± 10) P. aeruginosa (P. aeruginosa; IBU-Na 25 mM + ClNa (1M)): 10 UFC/mL
- P. aeruginosa count (UFC/mL ± 10) As a function of treatment time (P. aeruginosa; IBU-Na 25 mM, 1 hour): 500,000 UFC/mL
- Colony count (UFC/mL ± 10) Pseudomonas (P. aeruginosa; IBU-Na 25 mM, 4 hours at 37° C., control 1,700,000): 200,000 UFC/mL
- P. aeruginosa count (UFC/mL ± 10) As a function of treatment time (P. aeruginosa; IBU-Na 25 mM, 4 hours): 250,000 UFC/mL
- P. aeruginosa (UFC/mL ± 10) (P. aeruginosa; IBU-Na 25 mM, Without ionic strength, 4 hours at 37° C., control 1,700,000, Example 12): 200,000 UFC/mL
- P. aeruginosa (UFC/mL ± 10) (P. aeruginosa; IBU-Na 30 mM, Population A (control 200,000), 4 h at 37° C., Example 5): 500 UFC/mL
- P. aeruginosa (UFC/mL ± 10) (P. aeruginosa; IBU-Na 30 mM, Population B (control 20,000), 4 h at 37° C., Example 5): 40 UFC/mL
- P. aeruginosa (UFC/mL ± 10) (P. aeruginosa; IBU-Na 40 mM, Population A (control 200,000), 4 h at 37° C., Example 5): 100 UFC/mL
- Colony count (UFC/mL ± 10) P. aeruginosa (P. aeruginosa; IBU-Na 50 mM + ClNa (1M)): 10 UFC/mL
- Colony count (UFC/mL ± 10) (P. aeruginosa; IBU-Na 50 mM): 100 UFC/mL
- Colony count (UFC/mL ± 10) Pseudomonas (P. aeruginosa; IBU-Na 50 mM, 4 hours at 37° C., control 1,700,000): 100 UFC/mL
- P. aeruginosa count (UFC/mL ± 10) As a function of treatment time (P. aeruginosa; IBU-Na 50 mM, 4 hours): 30 UFC/mL
- P. aeruginosa (UFC/mL ± 10) (P. aeruginosa; IBU-Na 50 mM, Without ionic strength, 4 hours at 37° C., control 1,700,000, Example 12): 100 UFC/mL
- P. aeruginosa (UFC/mL ± 10) (P. aeruginosa; IBU-Na 50 mM, pH 7.8, 4 h at 37°, control 200,000, Example 7): 600 UFC/mL
- Colony count (UFC/mL ± 10) (P. aeruginosa; IBU-Na 100 mM): 10 UFC/mL
- P. aeruginosa count (UFC/mL ± 10) As a function of treatment time (P. aeruginosa; IBU-Na 100 mM, 1 hour): 2,000 UFC/mL
- Colony count (UFC/mL ± 10) Pseudomonas (P. aeruginosa; IBU-Na 100 mM, 4 hours at 37° C., control 1,700,000): 10 UFC/mL
- concentration at which the number of CFU/mL decreases to 1000 (P. aeruginosa; with ionic strength of NaCl 1 M, 4 hours at 37° C.): about 5 mM
- concentration at which the number of CFU/mL decreases to 1000 (P. aeruginosa; without ionic strength, 4 hours at 37° C.): 25 mM
- Colony count (UFC/mL ± 10) (Klebsiella pneumoniae; IBU-Na 50 mM): 600 UFC/mL
- Colony count (UFC/mL ± 10) (Klebsiella pneumoniae; IBU-Na 100 mM): 10 UFC/mL
- Colony count (UFC/mL ± 10) Burkhordelia (Burkhordelia cepacia; IBU-Na 5 mM): 1,300,000 UFC/mL
- Colony count (UFC/mL ± 10) Burkhordelia (Burkhordelia cepacia; IBU-Na 10 mM): 1,300,000 UFC/mL
- Colony count (UFC/mL ± 10) Burkhordelia (Burkhordelia cepacia; IBU-Na 25 mM): 40,000 UFC/mL
- Colony count (UFC/mL ± 10) (Burkhordelia cepacia; IBU-Na 50 mM): 680 UFC/mL
- Colony count (UFC/mL ± 10) Burkhordelia (Burkhordelia cepacia; IBU-Na 50 mM): 700 UFC/mL
- Colony count (UFC/mL ± 10) (Burkhordelia cepacia; IBU-Na 100 mM): 10 UFC/mL
- Colony count (UFC/mL ± 10) Burkhordelia (Burkhordelia cepacia; IBU-Na 100 mM): 10 UFC/mL
- Colony count (UFC/mL ± 10) (Enterobacter aerogenes; IBU-Na 50 mM): 450 UFC/mL
- Colony count (UFC/mL ± 10) (Enterobacter aerogenes; IBU-Na 100 mM): 10 UFC/mL
- P. aeruginosa (UFC/mL ± 10) ([1]; 10 mM): 25,000 UFC/mL
- P. aeruginosa (UFC/mL ± 10) ([1]; 25 mM): 200 UFC/mL
- Colony count (UFC/mL ± 10) (Pseudomonas fluorescens; IBU-Na 50 mM): 150 UFC/mL
- Colony count (UFC/mL ± 10) (Pseudomonas fluorescens; IBU-Na 100 mM): 10 UFC/mL
